Data published in ChEMBL document CHEMBL4828732, “Synthesis and biological evaluation of selective survivin inhibitors derived from the MX-106 hydroxyquinoline scaffold” (Eur J Med Chem, 2021).

Columns and labels:
RPMI-7951 = assay: cells; settings: Homo sapiens, RPMI-7951, 72 h
MDA-MB-435 = assay: cells; settings: Homo sapiens, MDA-MB-435, 72 h
SK-BR-3 = assay: cells; settings: Homo sapiens, SK-BR-3, 72 h
MDA-MB-435/LCC6MDR1 = assay: cells; settings: Homo sapiens, MDA-MB-435, 72 h
[1] = Resistance index, ratio of IC50 for antiproliferation activity against human MDA-MB-435/LCC6MDR cells to IC50 for antiproliferation activity against human MDA-MB-435 cells assessed as cell growth inhibition measured after 72 hrs by MTS assay; type: functional
A-375 = assay: cells; settings: Homo sapiens, A-375, 72 h
MDA-MB-453 = assay: cells; settings: Homo sapiens, MDA-MB-453, 72 h

Structure (SMILES)	IC50 (RPMI-7951)	IC50 (MDA-MB-435)	IC50 (SK-BR-3)	IC50 (MDA-MB-435/LCC6MDR1)	IC50 (A-375)	IC50 (MDA-MB-453)	Ratio IC50 [1]
Oc1c(CN2CCOCC2)cc(Cn2ncc(-c3ccc(Br)cc3)n2)c2cccnc12	700 nM	2400 nM	3000 nM	900 nM	1000 nM	2400 nM	0.4
Cc1ccc(-c2cnn(Cc3cc(CN4CCCC4)c(O)c4ncccc34)n2)cc1	600 nM	2000 nM	2900 nM	700 nM		2900 nM	0.4
Oc1c(CN2CCCC2)cc(Cn2ncc(-c3ccccc3Br)n2)c2cccnc12	700 nM	2400 nM	3000 nM	500 nM	700 nM	3100 nM	0.2
Oc1c(CN2CCCC2)cc(Cn2ncc(-c3ccsc3)n2)c2cccnc12	1300 nM	4800 nM	2700 nM	1600 nM	1100 nM	2200 nM	0.3
O=[N+]([O-])c1ccc(-c2cnn(Cc3cc(CN4CCCC4)c(O)c4ncccc34)n2)cc1	700 nM	4100 nM	3600 nM	1100 nM	700 nM	4100 nM	0.3
COCC[n+]1c2c(n(Cc3cnccn3)c1C)C(=O)c1ccccc1C2=O.[Br-] [SEPANTRONIUM BROMIDE]				> 1000 nM			>425
N#Cc1ccc(-c2cnn(Cc3cc(CN4CCCC4)c(O)c4ncccc34)n2)cc1	800 nM	5900 nM	6000 nM	1800 nM	1000 nM	4100 nM	0.3
CC(C)c1ccc(COCc2cc(-c3ccsc3)c(O)c3ncccc23)cc1	500 nM	1100 nM	800 nM	900 nM	600 nM	600 nM	0.9
CCN(CC)Cc1cc(Cn2ncc(-c3ccc(C(F)(F)F)cc3)n2)c2cccnc2c1O	1900 nM	3800 nM	4000 nM	1700 nM	1000 nM	6200 nM	0.5
Cc1ccc(-c2cc(COCc3ccc(C(C)C)cc3)c3cccnc3c2O)cc1	700 nM	1800 nM	1600 nM	2300 nM	800 nM	900 nM	1.3
Oc1c(CN2CCCC2)cc(Cn2ncc(-c3ccccc3)n2)c2cccnc12	3100 nM	5000 nM	4000 nM	600 nM	2000 nM	2900 nM	0.1

Second part, led by results:

IC50 (RPMI-7951)	IC50 (MDA-MB-435)	IC50 (SK-BR-3)	IC50 (MDA-MB-435/LCC6MDR1)	IC50 (A-375)	IC50 (MDA-MB-453)	Structure (SMILES)	Ratio IC50 [1]
800 nM	2100 nM	5700 nM	200 nM	1000 nM	1300 nM	CC(C)c1ccc(COCc2cc(Br)c(O)c3ncccc23)cc1	0.1
600 nM	3200 nM	2700 nM	2200 nM	900 nM	1800 nM	Oc1c(CN2CCCC2)cc(Cn2ncc(-c3ccc(OCc4ccccc4)cc3)n2)c2cccnc12	0.7
600 nM	1900 nM	1300 nM	3000 nM	800 nM	800 nM	COc1ccc(-c2cc(COCc3ccc(C(C)C)cc3)c3cccnc3c2O)cc1	1.6
2300 nM	4600 nM	4900 nM	1700 nM	1100 nM	5900 nM	CC(C)c1ccc(-c2cnn(Cc3cc(CN4CCCC4)c(O)c4ncccc34)n2)cc1	0.4
600 nM	4700 nM	2400 nM	5100 nM	800 nM	2000 nM	Oc1c(CN2CCNCC2)cc(Cn2ncc(-c3ccc(Br)cc3)n2)c2cccnc12	1.1
700 nM	1200 nM	3100 nM	1000 nM	800 nM	1700 nM	CC(C)c1ccc(COCc2cc(-c3ccnc4ccccc34)c(O)c3ncccc23)cc1	0.8
700 nM	3200 nM	3300 nM	1000 nM	700 nM	3300 nM	CCc1ccc(-c2cnn(Cc3cc(CN4CCCC4)c(O)c4ncccc34)n2)cc1	0.3
800 nM	3300 nM	3900 nM	1300 nM	1000 nM		Oc1c(CN2CCCC2)cc(COC2CCc3ccccc3C2)c2cccnc12 (configuration not stated)	0.4
1100 nM	1800 nM	3300 nM	1000 nM	700 nM	1700 nM	Cc1cccc(-c2cc(COCc3ccc(C(C)C)cc3)c3cccnc3c2O)c1	0.6
1300 nM	1900 nM	5700 nM	1200 nM	900 nM	4400 nM	CC(C)c1ccc(COCc2cc(-c3ccc(C(F)(F)F)cc3)c(O)c3ncccc23)cc1	0.6
1100 nM	3500 nM	2300 nM	2100 nM	1000 nM	1600 nM	CC(C)c1ccc(COCc2cc(CN3CCCC3)c(O)c3ncccc23)cc1	0.6
1300 nM	2200 nM	5900 nM	2200 nM	1900 nM	2400 nM	Oc1c(CN2CCCC2)cc(COC2Cc3ccccc3C2)c2cccnc12	1
2800 nM	8900 nM	6900 nM	1300 nM	2200 nM	3100 nM	Oc1c(CN2CCCC2)cc(Cn2cnc(-c3ccccc3)c2)c2cccnc12	0.1
2100 nM	3100 nM	4200 nM	1600 nM	900 nM	6300 nM	Oc1c(CN2CCCCCC2)cc(Cn2ncc(-c3ccc(C(F)(F)F)cc3)n2)c2cccnc12	0.5
900 nM	3900 nM	2800 nM	1400 nM	900 nM	2200 nM	COc1ccc(-c2cnn(Cc3cc(CN4CCCC4)c(O)c4ncccc34)n2)cc1	0.3
1600 nM	4100 nM	3200 nM	1100 nM	800 nM	3500 nM	Oc1c(CN2CCCC2)cc(Cn2ncc(-c3ccc(C(F)(F)F)cc3)n2)c2cccnc12	0.3
